Experimental data as given in patent US20170182106A1, “COMPOSITION INCLUDING KIRENOL OR SIEGESBECKIA HERBA EXTRACT FOR MUSCLE FUNCTION IMPROVEMENT OR EXERCISE ABILITY ENHANCEMENT” (University-Industry Foundation, Yonsei University, priority 2014, published 2017).

Columns and labels:
Assay type in all cases: cell-based
[1] = tested on: myogenin; assay: myogenin mRNA expression in TNF-α-treated differentiated L6 cells (RT-PCR); details: TNF-α 24 hours, kirenol 10, 40 μM, FIG. 4
Procedure: (§1) L6 myoblasts (American Type Culture Collection, Manassas, Va., USA), which are muscle cells, were incubated in DMEM (10% FBS, 100 U/mL penicillin, 100 μg/mL streptomycin). When the cell density reached about 80-85%, the cell culture medium was replaced with a DMEM growth medium supplemented with 2% FBS. The experiment was initiated after 6 days of differentiation. To induce muscle reduction, the differentiated L6 cells were treated with TNF-α for 24 hours and then with the ethanol extract of Siegesbeckia orientalis L. (10, 40 ppm) prepared according to Example 3-1 and kirenol (10, 40 μM) prepared according to Example 4. RT-PCR was carried out to measure mRNA expression levels of myogenin and MyoD, which are muscle differentiation regulatory factors. TRIzol Reagent (Invitrogen, Carlsbad, Calif., USA) was used for harvesting total RNA from the differentiated cells, and the total RNA was reverse transcribed. The RT-PCR analysis was carried out as follows: First, the RNA was reverse transcribed for cDNA synthesis by using a reverse transcriptase. RT-PCR was conducted using specific primers as listed below, and β-actin was used to indicate that a constant amount of mRNA was loaded into each lane.

[2] = tested on: atrogin-1; assay: atrogin-1 mRNA expression in differentiated L6 cells (RT-PCR); details: kirenol 10, 40 μM, FIG. 6
[3] = tested on: PGC-1α; assay: PGC-1α protein expression in L6 muscle cells (western blotting); details: 10 μM kirenol, 24 hours, vs 0.01% DMSO control, FIG. 11
Procedure: L6 myoblasts (myoblast; American Type Culture Collection, Manassas, Va., USA), which are muscle cells, were incubated in DMEM (Hyclone) containing 10% fetal bovine serum (FBS; Hyclone, Logan, Utah, USA), 100 U/mL penicillin, and 100 μg/mL streptomycin (Gibco, Grand Island, N.Y., USA). The L6 cells were treated with the Siegesbeckia glabrescens Mak. ethanol extract prepared according to Example 1-1, Siegesbeckia pubescens Mak. ethanol extract prepared according to Example 2-1, or Siegesbeckia orientalis L. ethanol extract prepared according to Example 3-1, each at a concentration of 10 ppm. Also, L6 cells were treated with 10 μM kirenol prepared according to Example 4. In this case, a group treated with 0.01% DMSO instead of being treated with a sample was prepared as a control group. 24 hours later, the L6 cells were dissolved in a RIPA (ELPIS-Biotech, Daejeon, Korea) buffer solution containing a proteinase inhibitor cocktail (Sigma-Aldrich, St. Louis, Mo., USA). […]
(§2) ECL western blotting detection reagents (Amersham, Tokyo, Japan) were used to color PGC-1α protein bands, and the G:BOX EF imaging system (Syngene, Cambridge, UK) was used to measure the densities of the colored protein bands. In this case, relative densities of protein bands of experimental groups treated with a sample were determined as a percentage (%), with the density of the control protein band being 100%. […]

[4] = tested on: p-mTOR; assay: p-mTOR protein expression in L6 muscle cells (western blotting); details: 10 μM kirenol, 24 hours, vs 0.01% DMSO control, FIG. 1
Procedure: L6 myoblasts (American Type Culture Collection, Manassas, Va., USA), which are muscle cells, were incubated in Dulbecco's Modified Eagle's Medium (DMEM; Hyclone) containing 10% fetal bovine serum (FBS; Hyclone, Logan, Utah, USA), 100 U/mL penicillin, and 100 μg/mL streptomycin (Gibco, Grand Island, N.Y., USA). The L6 cells were treated with the Siegesbeckia glabrescens Mak. ethanol extract prepared according to the above Example 1-1, the Siegesbeckia pubescens Mak. ethanol extract prepared according to Example 2-1, or the Siegesbeckia orientalis L. ethanol extract prepared according to Example 3-1, each at a concentration of 10 ppm. Also, L6 cells were treated with 10 μM kirenol prepared according to Example 4. In this case, a group treated with 0.01% DMSO instead of being treated with a sample was prepared as a control group. […]
as §2, with “p-mTOR” for “PGC-1α”

[5] = tested on: MuRF1; assay: MuRF1 mRNA expression in differentiated L6 cells (RT-PCR); details: kirenol 10, 40 μM, FIG. 6
[6] = tested on: MyoD; assay: MyoD mRNA expression in TNF-α-treated differentiated L6 cells (RT-PCR); details: TNF-α 24 hours, kirenol 10, 40 μM, FIG. 4
Procedure: as §1

C[C@@]1(CO)C[C@@H](O)C[C@@]2(C)C3CC[C@](C)([C@@H](O)CO)C=C3CC[C@H]12 (stereo in doubt) [kirenol, (1R,3S,4aS,4bS,7S,10aS)-1,2,3,4,4a,4b,5,6,7,9,10,10a-Dodecahydro-3-hydroxy-7-[(R)-1,2-dihydroxyethyl]-1,4a,7-trimethylphenanthrene-1-methanol]
mRNA expression level of myogenin [1]: increases | mRNA expression level of atrogin-1 [2]: reduces | protein expression level of PGC-1α [3]: increased | protein expression level of p-mTOR [4]: increased | mRNA expression level of MuRF1 [5]: reduces | mRNA expression level of MyoD [6]: increases
